{
  "source": "paper PMC12223475",
  "about": "“Two Key Ferredoxins for Nitrogen Fixation Have Different Specificities and Biophysical Properties” (Chemistry (Weinheim an Der Bergstrasse, Germany), 2025)",
  "molecular_target": "T1, FdC (Rhodobacter capsulatus, UniProt D5ARY7)",
  "T1 construct": "gene fdxC; full length, N-terminal Met replaced by Strep-tag (MAWSHPQFEK), tag kept; E. coli BL21-AI; monomer",
  "T1 sequence (D5ARY7 2-95)": "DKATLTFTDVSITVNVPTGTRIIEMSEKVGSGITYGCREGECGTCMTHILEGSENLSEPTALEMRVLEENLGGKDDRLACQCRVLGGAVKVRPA",
  "assay": "X-ray crystallography; UV-Vis; EPR",
  "format": "binding",
  "details": "1.7 Å; anaerobic crystallisation, pH 8.0; ligands C38, C43, C46, C81",
  "data": [
    {"compound": "[S]1[Fe][S][Fe]1", "note": "[[Fe2S2]-cluster]", "values": [
      {"measurement": "X-ray crystallography; UV-Vis; EPR", "result": "The globular and monomeric FdC coordinates a [Fe2S2]‐cluster"}
    ]}
  ]
}
